System: HaCaT cells
Test: MTT cell viability assay, HaCaT
Type: cell-based, human
Conditions: 100 μM
How it was run: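 HaCaT cells seeded, grown 24 h (37 °C, 5% CO2), then exposed 24 h to each compound at 100 μM in DMEM; MTT added for 4 h, formazan dissolved in DMSO, OD read at 540 nm (reference 720 nm). Triplicates versus untreated cells, no-cell blank and 100 μM silibinin as cell-killing standard.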

Compound	cytotoxicity in HaCaT [%]
Cc1c(-c2ccc(Cl)cc2)c(=O)oc2cccc(O)c12 [Compound 4c, 3-(4-chlorophenyl)-5-hydroxy-4-methyl-chromen-2-one]	63.7
Cc1c(-c2ccc(O)cc2)c(=O)oc2ccc(Cl)cc12 [Compound 4j, 6-chloro-3-(4-hydroxyphenyl)-4-methyl-chromen-2-one]	73

Reference: paper PMC8512853, “Synthesis, Bioactivity, Pharmacokinetic and Biomimetic Properties of Multi-Substituted Coumarin Derivatives” (Molecules, 2021)
